The text below walks through data of ChEMBL document CHEMBL1909046, “DrugMatrix in vitro pharmacology data”.

The target in one series is Glycine receptor (Rattus norvegicus, UniProt P22771+P24524+P07727+P20781). The format is cell membranes, Wistar, Spinal cord, Membrane. Further: in other assays of this panel Not Active means under 50% inhibition at 10 µM.
Conditions: not given
Regarding `CC(=O)O[C@]1(C(C)=O)CC[C@H]2[C@@H]3C=C(C)C4=CC(=O)CC[C@]4(C)[C@H]3CC[C@@]21C` [MEGESTROL ACETATE], the IC50 result is on record as “Not Active”.

Turning to `COc1ccccc1OCC(O)COC(N)=O` (stereo not given) [METHOCARBAMOL], the IC50 entry was “Not Active”.

With `CN(Cc1cnc2nc(N)nc(N)c2n1)c1ccc(C(=O)N[C@@H](CCC(=O)O)C(=O)O)cc1` [METHOTREXATE], the IC50 entry is listed as “Not Active”.

Take `COC(=O)c1ccccc1O` [METHYL SALICYLATE]: the IC50 entry was “Not Active”.

As to `COc1ccc2cc(CCC(C)=O)ccc2c1` [NABUMETONE], the IC50 entry is on record as “Not Active”.

Regarding `O=C(O)c1cccnc1` [NIACIN], the IC50 entry was “Not Active”.

The target in a further series is T1, C-C chemokine receptor type 4 (Homo sapiens, UniProt P51679). Further: in other assays of this panel Not Active means under 50% inhibition at 10 µM.
T1 sequence (P51679 whole entry): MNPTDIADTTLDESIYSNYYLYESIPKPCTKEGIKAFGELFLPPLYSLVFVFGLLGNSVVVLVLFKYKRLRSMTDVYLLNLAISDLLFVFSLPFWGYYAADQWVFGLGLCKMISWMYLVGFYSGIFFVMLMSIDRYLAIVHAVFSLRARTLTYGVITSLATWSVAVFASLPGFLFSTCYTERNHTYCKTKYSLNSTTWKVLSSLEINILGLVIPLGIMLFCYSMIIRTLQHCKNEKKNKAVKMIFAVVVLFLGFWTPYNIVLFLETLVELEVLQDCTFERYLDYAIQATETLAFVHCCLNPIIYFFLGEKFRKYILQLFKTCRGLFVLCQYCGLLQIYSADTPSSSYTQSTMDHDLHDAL
It is filed as cell membranes, Membrane. The following applies: chem-1.
For the compound `CC(=O)O[C@]1(C(C)=O)CC[C@H]2[C@@H]3C=C(C)C4=CC(=O)CC[C@]4(C)[C@H]3CC[C@@]21C` [MEGESTROL ACETATE], the IC50 result is “Not Active”.

Take `COc1ccccc1OCC(O)COC(N)=O` (stereo not given) [METHOCARBAMOL]: the IC50 result is “Not Active”.

With `CN(Cc1cnc2nc(N)nc(N)c2n1)c1ccc(C(=O)N[C@@H](CCC(=O)O)C(=O)O)cc1` [METHOTREXATE], the IC50 entry is listed as “Not Active”.

In the case of `COC(=O)c1ccccc1O` [METHYL SALICYLATE], the IC50 result is reported as “Not Active”.

Take `COc1ccc2cc(CCC(C)=O)ccc2c1` [NABUMETONE]: the IC50 result is “Not Active”.

For `O=C(O)c1cccnc1` [NIACIN], the IC50 entry is listed as “Not Active”.

In a further series the target is Sodium-dependent dopamine transporter (Homo sapiens, UniProt Q01959). Kind of series: DRUGMATRIX: Dopamine Transporter radioligand binding (ligand: [125I] RTI-55). The format is cell membranes, CHO-K1, Membrane. To be noted: cho-k1; Not Active = under 50% inhibition at 10 µM.
Chain of Sodium-dependent dopamine transporter (Q01959 whole entry): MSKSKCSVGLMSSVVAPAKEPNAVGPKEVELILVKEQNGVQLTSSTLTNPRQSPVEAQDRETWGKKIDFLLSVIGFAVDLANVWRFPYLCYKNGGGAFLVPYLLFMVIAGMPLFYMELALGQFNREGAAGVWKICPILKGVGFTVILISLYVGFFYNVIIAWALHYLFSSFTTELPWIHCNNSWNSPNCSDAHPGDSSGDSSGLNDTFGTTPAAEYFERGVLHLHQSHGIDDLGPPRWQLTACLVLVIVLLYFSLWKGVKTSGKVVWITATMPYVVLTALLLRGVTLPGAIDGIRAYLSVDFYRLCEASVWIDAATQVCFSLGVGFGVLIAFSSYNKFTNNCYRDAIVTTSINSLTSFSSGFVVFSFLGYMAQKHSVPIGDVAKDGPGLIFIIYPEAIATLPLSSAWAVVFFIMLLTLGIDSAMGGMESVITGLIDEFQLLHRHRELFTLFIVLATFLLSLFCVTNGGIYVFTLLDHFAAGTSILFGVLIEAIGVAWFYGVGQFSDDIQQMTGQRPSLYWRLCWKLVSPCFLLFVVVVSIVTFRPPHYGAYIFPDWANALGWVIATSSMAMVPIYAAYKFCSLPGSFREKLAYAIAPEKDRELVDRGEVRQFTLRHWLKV
For `CC(=O)O[C@]1(C(C)=O)CC[C@H]2[C@@H]3C=C(C)C4=CC(=O)CC[C@]4(C)[C@H]3CC[C@@]21C` [MEGESTROL ACETATE], the IC50 result is given as “Not Active”.

As for `COc1ccccc1OCC(O)COC(N)=O` (stereo not given) [METHOCARBAMOL], the IC50 result is given as “Not Active”.

As to `CN(Cc1cnc2nc(N)nc(N)c2n1)c1ccc(C(=O)N[C@@H](CCC(=O)O)C(=O)O)cc1` [METHOTREXATE], the IC50 result was “Not Active”.

For `COC(=O)c1ccccc1O` [METHYL SALICYLATE], the IC50 result is listed as “Not Active”.

As for `COc1ccc2cc(CCC(C)=O)ccc2c1` [NABUMETONE], the IC50 entry is “Not Active”.

For the compound `O=C(O)c1cccnc1` [NIACIN], the IC50 entry is on record as “Not Active”.

The target of another series is T2, Receptor-type tyrosine-protein phosphatase C (Homo sapiens, UniProt P08575).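 Further: inhibition of CD45 enzyme activity measured using DiFMUP as substrate; in other assays of this panel Not Active means under 50% inhibition at 10 µM.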
T2 sequence (P08575 whole entry): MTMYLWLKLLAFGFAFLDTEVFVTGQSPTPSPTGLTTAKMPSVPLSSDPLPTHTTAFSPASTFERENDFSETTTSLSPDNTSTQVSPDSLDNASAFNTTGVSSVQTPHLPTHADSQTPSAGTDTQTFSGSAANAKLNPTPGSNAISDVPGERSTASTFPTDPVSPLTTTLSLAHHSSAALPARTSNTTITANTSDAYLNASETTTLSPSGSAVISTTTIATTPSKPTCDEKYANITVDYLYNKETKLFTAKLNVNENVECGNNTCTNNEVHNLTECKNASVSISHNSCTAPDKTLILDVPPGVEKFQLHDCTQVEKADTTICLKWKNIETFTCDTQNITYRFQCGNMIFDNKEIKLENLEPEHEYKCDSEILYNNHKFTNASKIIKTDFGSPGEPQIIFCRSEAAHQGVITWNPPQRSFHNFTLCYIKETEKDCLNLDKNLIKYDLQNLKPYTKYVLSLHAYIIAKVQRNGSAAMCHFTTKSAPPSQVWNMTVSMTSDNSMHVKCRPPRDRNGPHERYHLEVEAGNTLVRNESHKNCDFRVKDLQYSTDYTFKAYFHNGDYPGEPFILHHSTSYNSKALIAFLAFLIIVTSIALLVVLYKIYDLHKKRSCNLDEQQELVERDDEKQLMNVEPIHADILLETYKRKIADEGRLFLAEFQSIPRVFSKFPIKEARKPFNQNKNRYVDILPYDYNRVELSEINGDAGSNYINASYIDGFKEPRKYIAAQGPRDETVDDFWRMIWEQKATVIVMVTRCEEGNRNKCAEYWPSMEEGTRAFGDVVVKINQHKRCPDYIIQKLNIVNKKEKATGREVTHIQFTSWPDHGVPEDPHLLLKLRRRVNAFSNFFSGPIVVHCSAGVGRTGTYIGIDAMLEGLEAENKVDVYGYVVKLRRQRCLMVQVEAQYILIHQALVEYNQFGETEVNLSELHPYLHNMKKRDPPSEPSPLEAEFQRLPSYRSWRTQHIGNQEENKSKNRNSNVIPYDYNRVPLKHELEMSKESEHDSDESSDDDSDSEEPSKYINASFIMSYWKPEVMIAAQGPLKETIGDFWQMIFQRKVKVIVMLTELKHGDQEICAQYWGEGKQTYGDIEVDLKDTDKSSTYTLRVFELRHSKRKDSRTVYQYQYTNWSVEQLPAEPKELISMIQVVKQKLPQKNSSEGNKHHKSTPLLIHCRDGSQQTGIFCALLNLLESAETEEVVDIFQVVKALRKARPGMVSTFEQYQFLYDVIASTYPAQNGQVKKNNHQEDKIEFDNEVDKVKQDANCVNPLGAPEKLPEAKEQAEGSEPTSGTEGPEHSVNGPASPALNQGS
Also noted: species or system Escherichia coli.
Conditions: not given
With `CC(=O)O[C@]1(C(C)=O)CC[C@H]2[C@@H]3C=C(C)C4=CC(=O)CC[C@]4(C)[C@H]3CC[C@@]21C` [MEGESTROL ACETATE], the IC50 result was “Not Active”.

In the case of `COc1ccccc1OCC(O)COC(N)=O` (stereo not given) [METHOCARBAMOL], the IC50 entry is listed as “Not Active”.

As for `CN(Cc1cnc2nc(N)nc(N)c2n1)c1ccc(C(=O)N[C@@H](CCC(=O)O)C(=O)O)cc1` [METHOTREXATE], the IC50 result was “Not Active”.

Consider `COC(=O)c1ccccc1O` [METHYL SALICYLATE], for which the IC50 result is “Not Active”.

As to `COc1ccc2cc(CCC(C)=O)ccc2c1` [NABUMETONE], the IC50 result was “Not Active”.

`O=C(O)c1cccnc1` [NIACIN]: the IC50 entry is given as “Not Active”.

For another series, the target named is Histamine H2 receptor (Homo sapiens, UniProt P25021). The format is cell membranes, CHO-K1, Membrane. The following applies: cho-k1. Further: in other assays of this panel Not Active means under 50% inhibition at 10 µM.
Chain of Histamine H2 receptor (P25021 whole entry): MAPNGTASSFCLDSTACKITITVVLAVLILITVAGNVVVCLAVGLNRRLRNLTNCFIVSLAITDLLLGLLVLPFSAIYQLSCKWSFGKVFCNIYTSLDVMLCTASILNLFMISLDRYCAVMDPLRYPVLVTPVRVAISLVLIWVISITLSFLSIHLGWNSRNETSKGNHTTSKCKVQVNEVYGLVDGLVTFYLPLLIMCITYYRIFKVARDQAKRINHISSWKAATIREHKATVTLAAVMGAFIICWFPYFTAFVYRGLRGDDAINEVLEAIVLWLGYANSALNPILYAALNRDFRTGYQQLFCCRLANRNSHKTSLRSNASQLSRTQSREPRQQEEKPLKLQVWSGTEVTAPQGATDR
As to `CC(=O)O[C@]1(C(C)=O)CC[C@H]2[C@@H]3C=C(C)C4=CC(=O)CC[C@]4(C)[C@H]3CC[C@@]21C` [MEGESTROL ACETATE], the IC50 entry is “Not Active”.

As for `COc1ccccc1OCC(O)COC(N)=O` (stereo not given) [METHOCARBAMOL], the IC50 result is “Not Active”.

For the compound `CN(Cc1cnc2nc(N)nc(N)c2n1)c1ccc(C(=O)N[C@@H](CCC(=O)O)C(=O)O)cc1` [METHOTREXATE], the IC50 result was “Not Active”.

In the case of `COC(=O)c1ccccc1O` [METHYL SALICYLATE], the IC50 result is listed as “Not Active”.

Consider `COc1ccc2cc(CCC(C)=O)ccc2c1` [NABUMETONE], for which the IC50 result was “Not Active”.

Consider `O=C(O)c1cccnc1` [NIACIN], for which the IC50 result was “Not Active”.

System in the next series: not listed separately
Kind of series: DRUGMATRIX: GABAA, Flunitrazepam, Central radioligand binding (ligand: [3H] Flunitrazepam). The following applies: Not Active = under 50% inhibition at 10 µM. It is filed as cell membranes, Rattus norvegicus, Wistar, Brain, Membrane.
In the case of `CC(=O)O[C@]1(C(C)=O)CC[C@H]2[C@@H]3C=C(C)C4=CC(=O)CC[C@]4(C)[C@H]3CC[C@@]21C` [MEGESTROL ACETATE], the IC50 entry is given as “Not Active” and the Ki result was “Not Active”.

With `COc1ccccc1OCC(O)COC(N)=O` (stereo not given) [METHOCARBAMOL], the IC50 result is “Not Active” and the Ki entry is “Not Active”.

On to `CN(Cc1cnc2nc(N)nc(N)c2n1)c1ccc(C(=O)N[C@@H](CCC(=O)O)C(=O)O)cc1` [METHOTREXATE], for which the IC50 entry is on record as “Not Active” and the Ki entry is “Not Active”.

On to `COC(=O)c1ccccc1O` [METHYL SALICYLATE], for which the IC50 entry is “Not Active” and the Ki entry is on record as “Not Active”.

Turning to `COc1ccc2cc(CCC(C)=O)ccc2c1` [NABUMETONE], the IC50 result was “Not Active” and the Ki result is given as “Not Active”.

`O=C(O)c1cccnc1` [NIACIN]: the IC50 result is given as “Not Active” and the Ki result is recorded as “Not Active”.

The target in the next series is T3, Cytochrome P450 2A6 (Homo sapiens, UniProt P11509). Further: in other assays of this panel Not Active means under 50% inhibition at 10 µM.
T3 sequence (P11509 whole entry): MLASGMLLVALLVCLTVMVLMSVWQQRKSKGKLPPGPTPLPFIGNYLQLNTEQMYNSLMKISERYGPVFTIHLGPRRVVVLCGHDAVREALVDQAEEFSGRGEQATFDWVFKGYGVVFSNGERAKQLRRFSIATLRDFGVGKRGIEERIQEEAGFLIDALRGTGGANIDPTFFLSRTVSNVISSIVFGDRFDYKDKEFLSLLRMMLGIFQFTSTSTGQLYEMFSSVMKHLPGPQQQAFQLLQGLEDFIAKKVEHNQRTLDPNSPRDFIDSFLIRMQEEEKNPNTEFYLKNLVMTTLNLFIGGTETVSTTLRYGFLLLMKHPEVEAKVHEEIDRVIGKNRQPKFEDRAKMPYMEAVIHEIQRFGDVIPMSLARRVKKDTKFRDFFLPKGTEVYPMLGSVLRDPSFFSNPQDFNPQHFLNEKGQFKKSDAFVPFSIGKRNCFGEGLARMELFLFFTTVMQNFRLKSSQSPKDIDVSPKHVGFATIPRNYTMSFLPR
To be noted: bti-tn-5b1-4.
Regarding `CC(=O)O[C@]1(C(C)=O)CC[C@H]2[C@@H]3C=C(C)C4=CC(=O)CC[C@]4(C)[C@H]3CC[C@@]21C` [MEGESTROL ACETATE], the IC50 result is recorded as “Not Active” and the Ki result was “Not Active”.

Turning to `COc1ccccc1OCC(O)COC(N)=O` (stereo not given) [METHOCARBAMOL], the IC50 result is “Not Active” and the Ki entry is “Not Active”.

For the compound `CN(Cc1cnc2nc(N)nc(N)c2n1)c1ccc(C(=O)N[C@@H](CCC(=O)O)C(=O)O)cc1` [METHOTREXATE], the IC50 entry is recorded as “Not Active” and the Ki entry was “Not Active”.

For `COC(=O)c1ccccc1O` [METHYL SALICYLATE], the IC50 result is “Not Active” and the Ki result was “Not Active”.

`COc1ccc2cc(CCC(C)=O)ccc2c1` [NABUMETONE]: the IC50 result is “Not Active” and the Ki entry is reported as “Not Active”.

For the compound `O=C(O)c1cccnc1` [NIACIN], the IC50 result is listed as “Not Active” and the Ki result is listed as “Not Active”.

The next series deals with Protein kinase C alpha type (Homo sapiens, UniProt P17252). The format is cell-based. To be noted: sf9.
For the compound `CC(=O)O[C@]1(C(C)=O)CC[C@H]2[C@@H]3C=C(C)C4=CC(=O)CC[C@]4(C)[C@H]3CC[C@@]21C` [MEGESTROL ACETATE], the IC50 entry was “Not Active”.

Take `COc1ccccc1OCC(O)COC(N)=O` (stereo not given) [METHOCARBAMOL]: the IC50 result was “Not Active”.

In the case of `CN(Cc1cnc2nc(N)nc(N)c2n1)c1ccc(C(=O)N[C@@H](CCC(=O)O)C(=O)O)cc1` [METHOTREXATE], the IC50 entry is on record as “Not Active”.

Turning to `COC(=O)c1ccccc1O` [METHYL SALICYLATE], the IC50 result was “Not Active”.

For `COc1ccc2cc(CCC(C)=O)ccc2c1` [NABUMETONE], the IC50 result was “Not Active”.

As for `O=C(O)c1cccnc1` [NIACIN], the IC50 entry is “Not Active”.
